Results from article PMC6835510, “Magnificamide, a β-Defensin-Like Peptide from the Mucus of the Sea Anemone Heteractis magnifica, Is a Strong Inhibitor of Mammalian α-Amylases” (Marine Drugs, 2019).
Bridge positions count the residues as written; N and C are the ends. Ends that are not written are not given here.

Tests used:
[1] = test system: 18 subtypes of voltage-gated potassium and voltage-gated sodium channels; assay: Electrophysiological screening, overall; type: cell-based; conditions: 10 µM, Xenopus laevis oocytes
Text: (§1) For the expression of Nav channels (mammalian rNav1.2, rNav1.4, hNav1.5, mNav1.6 and hNav1.8 channels; the insect channel BgNav1 from Blattella germanica; and the auxiliary subunits rβ1, hβ1, and TipE) and Kv channels (mammalian rKv1.1, rKv1.2, hKv1.3, rKv1.4, rKv1.5, rKv1.6, rKv2.1, hKv3.1, rKv4.2, hKv10.1, and hERG; and Drosophila Shaker’s IR) in Xenopus laevis oocytes; the linearized plasmids were transcribed using the T7 or SP6 mMESSAGE-mMACHINE transcription kit (Ambion, Carlsbad, CA, USA). The harvesting of stage V–VI oocytes from anesthetized female Xenopus laevis frog was previously described. Oocytes were injected with 50 nL of cRNA at a concentration of 1 ng/nL using a microinjector (Drummond Scientific, Broomall, PA, USA). The oocytes were incubated in a solution containing 96-mM NaCl, 2-mM KCl, 1.8-mM CaCl2, 2-mM MgCl2, and 5-mM HEPES (pH 7.4), supplemented with 50 mg/L gentamycin sulfate.
Two-electrode voltage-clamp recordings were performed at room temperature (18–22 °C) using a Geneclamp 500 amplifier (Molecular Devices, Downingtown, PA, USA) controlled by a pClamp data acquisition system (Axon Instruments, Union City, CA, USA). Whole cell currents from oocytes were recorded 1–4 days after injection. The bath solution’s composition was 96-mM NaCl, 2-mM KCl, 1.8-mM CaCl2, 2-mM MgCl2, and 5-mM HEPES (pH 7.4). Toxins were applied directly to the bath. Resistances of both electrodes were kept between 0.8 and 1.5 MΩ. The elicited currents were sampled at 20 kHz (Nav) or 2 kHz (Kv), filtered at 2 kHz (Nav) or 0.5 kHz (Kv) using a four-pole low-pass Bessel filter. Leak subtraction was performed using a -P/4 protocol. […] For the electrophysiological analysis, a number of protocols were applied from a holding potential of −90 mV with a start-to-start interval of 0.2 Hz. Kv1.1–Kv1.6 and Shaker currents were evoked by 250-ms depolarizations to 0 mV followed by a 250 ms pulse to −50 mV from a holding potential of −90 mV. […] All data were analyzed using pClamp Clampfit 10.0 (Molecular Devices, Downingtown, PA, USA) and Origin 7.5 software (Originlab, Northampton, MA, USA).

[2] = test system: hKv3.1; assay: Two-electrode voltage-clamp; type: cell-based, mammalian; conditions: 10 µM; Xenopus laevis oocytes; 18–22 °C
Text: as §1
(§2) Two-electrode voltage-clamp recordings were performed at room temperature (18–22 °C) using a Geneclamp 500 amplifier (Molecular Devices, Downingtown, PA, USA) controlled by a pClamp data acquisition system (Axon Instruments, Union City, CA, USA). Whole cell currents from oocytes were recorded 1–4 days after injection. The bath solution’s composition was 96-mM NaCl, 2-mM KCl, 1.8-mM CaCl2, 2-mM MgCl2, and 5-mM HEPES (pH 7.4). Toxins were applied directly to the bath. Resistances of both electrodes were kept between 0.8 and 1.5 MΩ. The elicited currents were sampled at 20 kHz (Nav) or 2 kHz (Kv), filtered at 2 kHz (Nav) or 0.5 kHz (Kv) using a four-pole low-pass Bessel filter. Leak subtraction was performed using a -P/4 protocol. […] For the electrophysiological analysis, a number of protocols were applied from a holding potential of −90 mV with a start-to-start interval of 0.2 Hz. Kv1.1–Kv1.6 and Shaker currents were evoked by 250-ms depolarizations to 0 mV followed by a 250 ms pulse to −50 mV from a holding potential of −90 mV. Current traces of hERG channels were elicited by applying a +40 mV prepulse for 2 s followed by −120 mV for 2 s. Kv2.1, Kv3.1, and Kv4.2 currents were elicited by 250 ms pulses to +20 mV from a holding potential of −90 mV. Kv10.1 currents were evoked by 2-s depolarizing pulses to 0 mV from a holding potential of −90 mV. Sodium current traces were evoked by 100-ms depolarization to the voltage corresponding to maximal sodium current in control conditions. All data were analyzed using pClamp Clampfit 10.0 (Molecular Devices, Downingtown, PA, USA) and Origin 7.5 software (Originlab, Northampton, MA, USA).

[3] = test system: hERG; assay: Two-electrode voltage-clamp; type: cell-based, mammalian; conditions: 10 µM; Xenopus laevis oocytes; 18–22 °C
Text: as §1, §2

[4] = test system: rKv4.2; assay: Two-electrode voltage-clamp; type: cell-based, mammalian; conditions: 10 µM; Xenopus laevis oocytes; 18–22 °C
Text: as §1, §2

[5] = test system: rKv2.1; assay: Two-electrode voltage-clamp; type: cell-based, mammalian; conditions: 10 µM; Xenopus laevis oocytes; 18–22 °C
Text: as §1, §2

[6] = test system: rKv1.6; assay: Two-electrode voltage-clamp; type: cell-based, mammalian; conditions: 10 µM; Xenopus laevis oocytes; 18–22 °C
Text: as §1, §2

[7] = test system: rKv1.4; assay: Two-electrode voltage-clamp; type: cell-based, mammalian; conditions: 10 µM; Xenopus laevis oocytes; 18–22 °C
Text: as §1, §2

[8] = test system: rKv1.5; assay: Two-electrode voltage-clamp; type: cell-based, mammalian; conditions: 10 µM; Xenopus laevis oocytes; 18–22 °C
Text: as §1, §2

[9] = test system: hKv10.1; assay: Two-electrode voltage-clamp; type: cell-based, mammalian; conditions: 10 µM; Xenopus laevis oocytes; 18–22 °C
Text: as §1, §2

[10] = test system: rNav1.4; assay: Two-electrode voltage-clamp; type: cell-based, mammalian; conditions: 10 µM; Xenopus laevis oocytes; 18–22 °C
Text: as §1, §2

[11] = test system: hKv1.3; assay: Two-electrode voltage-clamp; type: cell-based, mammalian; conditions: 10 µM; Xenopus laevis oocytes; 18–22 °C
Text: as §1, §2

[12] = test system: mNav1.6; assay: Two-electrode voltage-clamp; type: cell-based, mammalian; conditions: 10 µM; Xenopus laevis oocytes; 18–22 °C
Text: as §1, §2

[13] = test system: rKv1.2; assay: Two-electrode voltage-clamp; type: cell-based, mammalian; conditions: 10 µM; Xenopus laevis oocytes; 18–22 °C
Text: as §1, §2

[14] = test system: hNav1.5; assay: Two-electrode voltage-clamp; type: cell-based, mammalian; conditions: 10 µM; Xenopus laevis oocytes; 18–22 °C
Text: as §1, §2

[15] = test system: rKv1.1; assay: Two-electrode voltage-clamp; type: cell-based, mammalian; conditions: 10 µM; Xenopus laevis oocytes; 18–22 °C
Text: as §1, §2

[16] = test system: rNav1.2; assay: Two-electrode voltage-clamp; type: cell-based, mammalian; conditions: 10 µM; Xenopus laevis oocytes; 18–22 °C
Text: as §1, §2

[17] = test system: hNav1.8; assay: Two-electrode voltage-clamp; type: cell-based, mammalian; conditions: 10 µM; Xenopus laevis oocytes; 18–22 °C
Text: as §1, §2

In the case of “SEGTSCYIYHGVYGICKAKCAEDMKAMAGMGVCEGDLCCYKTPW (disulfide 6-38, 16-33, 20-39) [r-magnificamide]”, the “Ion channel modulating activity, overall” value ([1]; listed as r-Magnificamide) is reported as “did not reveal ion channel modulating activity”, the “Ion channel modulating activity, overall” value ([1]; listed as recombinant analog of magnificamide) is reported as “does not show antimicrobial or channel modulating activities” and the “Channel modulating activity, Kv3.1” value [2] is reported as “Not active”. For the same sequence, the “Channel modulating activity, hERG” value [3] was “Not active”, the “Channel modulating activity, Kv4.2” value [4] was “Not active” and the “Channel modulating activity, Kv2.1” value [5] was “Not active”. For the same sequence, the “Channel modulating activity, Kv1.6” value [6] was “Not active”, the “Channel modulating activity, Kv1.4” value [7] was “Not active” and the “Channel modulating activity, Kv1.5” value [8] was “Not active”. The “Channel modulating activity, Kv10.1” value [9] was “Not active”, the “Channel modulating activity, Nav1.4” value [10] was “Not active” and the “Channel modulating activity, Kv1.3” value [11] was “Not active”. For the same sequence, the “Channel modulating activity, Nav1.6” value [12] was “Not active”, the “Channel modulating activity, Kv1.2” value [13] was “Not active” and the “Channel modulating activity, Nav1.5” value [14] was “Not active”. For the same sequence, the “Channel modulating activity, Kv1.1” value [15] was “Not active”, the “Channel modulating activity, Nav1.2” value [16] was “Not active” and the “Channel modulating activity, Nav1.8” value [17] was “Not active”.
